From PMC4821887, “Identification of chemicals that mimic transcriptional changes associated with autism, brain aging and neurodegeneration” (Nature Communications, 2016)
“Also recorded” adds a separate entry of the source.

How the values were obtained:
[1] = system: Rest, Gsta4, Gstm1, Hmox1 transcripts in cortical cultures; experiment: Quantitative real-time PCR of cluster 2 upregulated genes; assay type: cell-based, mouse; settings: fenamidone 10 μM or indicated doses, 24 h, relative to vehicle
Protocol: Total RNA was extracted and purified using the RNeasy plus mini kit (Qiagen) following the manufacturer's instructions. RNA was quantified using Nanodrop 1000 (Thermo Scientific) and reverse transcribed using iScript Reverse Transcription Supermix (Bio-Rad). Quantitative real-time PCR analysis was performed in technical duplicates using SYBR Green PCR master mix (Applied Biosystems) in a 7500 Real-Time PCR instrument (Applied Biosystems). An amount of 10 ng of complementary DNA was used in each reaction. Fold change of expression of the target RNA in each treatment condition relative to the untreated sample were calculated by raising 2 to the power of −ΔΔCt. ΔΔCt was calculated by subtracting the ΔCt of the untreated sample to the ΔCt of each treatment condition. The ΔCt of each sample was calculated by subtracting the average Ct of Gapdh to the average Ct of the target RNA. The following primers were used at a final concentration of 0.5 μM:
Rest (F: 5′-[…]-3′, R: 5′-[…]-3′); Gsta4 (F: 5′-[…]-3′, R: 5′-[…]-3′); Gstm1 (F: 5′-[…]-3′, R: 5′-[…]-3′); Hmox1 (F: 5′-[…]-3′, R: 5′-[…]-3′); and Gapdh (F: 5′-[…]-3′, R: 5′-[…]-3′).

[2] = system: mouse cortical neuron cultures; experiment: Fluorescence immunocytochemistry for cellular composition (NeuN, Gfap, Iba1); assay type: cell-based; settings: 10 μM, 24 h, relative to vehicle
[3] = system: mouse cortical neuron cultures; settings: mouse, 24 h, 10 µM
[4] = in vivo; cited from earlier work

With CSC1=N[C@@](C)(c2ccccc2)C(=O)N1Nc1ccccc1 [fenamidone] the “Expression of Nrf2 target antioxidant response genes and Rest (qRT-PCR validation)” value [1] was “Upregulated”, the “Change in cellular composition (number of NeuN, Gfap or Iba1 positive cells)” value [2] was “did not; also recorded: no significant change” and the “% Dead cells (vehicle subtracted)” value [3] was 1.638%. For the same compound, the “Neurotoxicity in a set of assays used by regulatory agencies” value [4] was “No evidence of neurotoxicity”.
